Patent publication US9624244B2, “Benzo [B] isoxazoloazepine bromodomain inhibitors and uses thereof” (Constellation Pharmaceuticals, Inc., priority 2012, dated 2017)

Legend:
[1] = test system: IL-6 secretion, THP-1 cells; test: Cell-based IL-6 quantification assay (ELISA, Mesoscale) in LPS-stimulated THP-1 cells; settings: Homo sapiens, LPS 4 μg/mL, 16 h, ELISA value/CellTiter-Glo ratio
Protocol: Cell-Based IL-6 Quantification Assay (ELISA, Mesoscale Assay):
100,000 THP-1 cells were seeded in RPMI1640-10% FBS in 96-well plates. LPS (E. Coli Invitrogen) in RPMI-10% FBS at a final concentration of 4 μg/mL was added to the wells and the cells are then incubated in the presence of various concentrations of compounds for 16 h. Plates are spun ([…], 5 min), an aliquot of 25 uL supernatant is transferred in to an ELISA plate (Mesoscale technology, MSD) and the detection of IL-6 is performed using manufacturer's instructions. The amount of cells in each well is assessed using CellTiter-Glo® (Promega). The ratio of ELISA value/CellTiter-Glo value is used to calculate the percent of inhibition of IL-6 secretion.

BRD4(BD1) = target: T1, BRD4(BD1) (Homo sapiens, UniProt O60885); test: BRD4 AlphaLisa binding assay; settings: BRD4(BD1) 30 nM, biotinylated H4-tetraacetyl peptide 200 nM, read-out: AS IC50
T1 construct: His; made in house
Protocol: IC50 Measurements for Inhibitors Using BRD4 AlphaLisa Binding Assay
Specifically, in a 384 well ProxiPlate BRD4(BD1) (30 nM final) was combined with peptide (200 nM final) in 40 mM HEPES (pH 7.0), 40 mM NaCl, 1 mM DTT, 0.01% (w/v) BSA, and 0.008% (w/v) Brij-35 either in the presence of DMSO (final 1.2% DMSO) or compound dilution series in DMSO. After 20 minute incubation at room temperature Alpha streptavidin donor beads and AlphaLisa anti-Flag acceptor beads were added to a final concentration of 10 ug/mL each. After three hours equilibration plates were read on an Envision instrument and IC50s calculated using a four parameter non-linear curve fit.

[2] = test system: MYC mRNA, MV4:11 (AML) or Raji (Burkitt's lymphoma) cells; test: cMyc RNA quantification assay (QuantiGene); format: cell-based; settings: MV4:11 or Raji cells, 4 h, MYC mRNA normalized to DMSO
Protocol: cMyc RNA Quantification Assay (QuantiGene® Assay):
MV4:11 (AML) or Raji (Burkitt's lymphoma) cells were seeded in a 96-well plate and incubated in the presence of various concentrations of compounds for 4 h. Relative mRNA levels were quantitated by using QuantiGene 2.0 assay (Affymetrix) according to the manufacturer's recommendation. Signals were detected by using an Envision plate reader (Perkin-Elmer). Biological duplicates were averaged and normalized to vehicle (DMSO) control to calculate percent MYC mRNA levels.

Compound `CCC1CN(c2ccc(C#N)cc2)c2cc(-c3ccc(=O)n(C)c3)ccc2-c2c(C)noc21` (stereo not drawn) [Compound 122] has an IC50 [1] of 120 nM, an IC50 (BRD4(BD1)) of 40 nM and an EC50 [2] of 240 nM.

In the case of `Cc1ccc2c(c1)-c1c(C)noc1CCN2c1ccc(C#N)cc1` [Compound 106], the IC50 [1] is reported as > 1000 nM, the IC50 (BRD4(BD1)) is reported as 230 nM and the EC50 [2] is reported as 1980 nM.

With `Cc1noc(C)c1-c1ccc2c(c1)N(c1ccc(C#N)cc1)CCc1onc(C)c1-2` [Compound 111] the IC50 [1] was > 1000 nM, the IC50 (BRD4(BD1)) was 300 nM and the EC50 [2] was 3330 nM.

In the case of `Cc1noc2c1-c1ccc(-c3ccc(N)nc3)cc1N(c1ccc(C#N)cc1)CC2CC(=O)N(C)C` (stereo not drawn) [Compound 139, 2-(8-(6-aminopyridin-3-yl)-6-(4-cyanophenyl)-1-methyl-5,6-dihydro-4H-benzo[b]isoxazolo[4,5-d]azepin-4-yl)-N,N-dimethylacetamide], the IC50 [1] is reported as > 1000 nM, the IC50 (BRD4(BD1)) is reported as 1000 nM and the EC50 [2] is reported as > 4000 nM.

With `Cc1cc(C#N)ccc1N1CCc2onc(C)c2-c2ccccc21` [Compound 107] the IC50 [1] was > 15000 nM and the IC50 (BRD4(BD1)) was > 4000 nM.

Compound `CCC1CN(c2ccc(C#N)cc2)c2cc(-c3cnn(C)c3)ccc2-c2c(C)noc21` (stereo not drawn) [Compound 121] has an IC50 [1] of 150 nM, an IC50 (BRD4(BD1)) of 80 nM and an EC50 [2] of 460 nM.

`Cc1noc2c1-c1ccc(-c3cnn(C)c3)c(C)c1N(c1ccc(C#N)cc1)CC2C` (stereo not drawn) [Compound 118] showed an IC50 [1] of 520 nM, an IC50 (BRD4(BD1)) of 160 nM and an EC50 [2] of 830 nM.

`Cc1onc2c1-c1ccccc1N(c1ccc(Cl)cc1)CC2` [Compound 136, 6-(4-chlorophenyl)-1-methyl-5,6-dihydro-4H-benzo[b]isoxazolo[4,3-d]azepine] was tested, and the IC50 [1] was 7700 nM, the IC50 (BRD4(BD1)) was 4770 nM and the EC50 [2] was > 4000 nM.

Work on `Cc1noc2c1-c1ccccc1N(c1ccc(C#N)cc1)CC21CC1` [Compound 104] yielded an IC50 (BRD4(BD1)) of 750 nM.

In the case of `Cc1noc2c1-c1ccccc1N(Cc1ccccc1)CC2` [Compound 130, 6-benzyl-1-methyl-5,6-dihydro-4H-benzo[b]isoxazolo[4,5-d]azepine], the IC50 [1] is reported as 5900 nM, the IC50 (BRD4(BD1)) is reported as 12900 nM and the EC50 [2] is reported as > 4000 nM.

With `Cc1noc2c1-c1cc(-c3cnn(C)c3)ccc1N(c1ccc(C#N)cc1)CC2` [Compound 114] the IC50 [1] was > 15000 nM, the IC50 (BRD4(BD1)) was 3800 nM and the EC50 [2] was > 4000 nM.

Work on `Cc1noc2c1-c1ccc(-c3ccc(=O)n(C)c3)cc1N(c1ccc(C#N)cc1)CC2` [Compound 117] yielded an IC50 [1] of 150 nM, an IC50 (BRD4(BD1)) of 40 nM and an EC50 [2] of 610 nM.

`Cc1noc2c1-c1ccc(-c3cnn(C)c3)cc1N(c1ccc(C#N)cc1)C(=O)C2` [Compound 135, 4-(1-methyl-8-(1-methyl-1H-pyrazol-4-yl)-5-oxo-4H-benzo[b]isoxazolo[4,5-d]azepin-6(5H)-yl)benzonitrile] gave an IC50 [1] of 650 nM, an IC50 (BRD4(BD1)) of 490 nM and an EC50 [2] of 1320 nM.

Compound `Cc1noc2c1-c1ccccc1N(C(=O)c1ccccc1)CC2` [Compound 132, (1-methyl-4H-benzo[b]isoxazolo[4,5-d]azepin-6(5H)-yl)(phenyl)methanone] has an IC50 [1] of 3110 nM and an IC50 (BRD4(BD1)) of 8140 nM.

`Cc1noc2c1-c1ccc(-c3ccc(N)nc3)cc1N(c1ccc(C#N)cc1)CC2C` (stereo not drawn) [Compound 123] showed an IC50 [1] of 80 nM, an IC50 (BRD4(BD1)) of 40 nM and an EC50 [2] of 200 nM.

In the case of `Cc1noc2c1-c1ccc(-c3cnn(C)c3)cc1N(c1ccc(C#N)cc1)CC2CC#N` (stereo not drawn) [Compound 140, 4-(4-(cyanomethyl)-1-methyl-8-(1-methyl-1H-pyrazol-4-yl)-4H-benzo[b]isoxazolo[4,5-d]azepin-6(5H)-yl)benzonitrile], the IC50 [1] is reported as > 1000 nM and the IC50 (BRD4(BD1)) is reported as 500 nM.

In the case of `Cc1noc2c1-c1ccc(-c3cncnc3)cc1N(c1ccc(C#N)cc1)CC2` [Compound 109], the IC50 [1] is reported as > 1000 nM, the IC50 (BRD4(BD1)) is reported as 350 nM and the EC50 [2] is reported as 2040 nM.

`Cc1noc2c1-c1ccccc1N(c1ccc(Cl)cc1)CC2` [Compound 101] was tested, and the IC50 [1] was 11900 nM and the IC50 (BRD4(BD1)) was 2680 nM.

Compound `Cc1noc2c1-c1ccc(-c3cnn(CC(N)=O)c3)cc1N(c1ccc(C#N)cc1)CC2C` (stereo not drawn) [Compound 134, 2-(4-(6-(4-cyanophenyl)-1,4-dimethyl-5,6-dihydro-4H-benzo[b]isoxazolo[4,5-d]azepin-8-yl)-1H-pyrazol-1-yl)acetamide] has an IC50 [1] of 70 nM, an IC50 (BRD4(BD1)) of 30 nM and an EC50 [2] of 120 nM.

With `Cc1noc2c1-c1ccccc1N(C)CC2` [Compound 127, 1,6-dimethyl-5,6-dihydro-4H-benzo[b]isoxazolo[4,5-d]azepine] the IC50 [1] was > 15000 nM and the IC50 (BRD4(BD1)) was 9870 nM.

`Cc1noc2c1-c1ccc(-c3ccc(C(=O)O)cc3)cc1N(c1ccc(C#N)cc1)CC2` [Compound 115] showed an IC50 [1] of 530 nM, an IC50 (BRD4(BD1)) of 30 nM and an EC50 [2] of 2120 nM.

With `Cc1noc2c1-c1ccccc1NC(=O)C2N` (stereo not drawn) [Compound 142, 4-amino-1-methyl-4H-benzo[b]isoxazolo[4,5-d]azepin-5(6H)-one] the IC50 [1] was > 1000 nM and the IC50 (BRD4(BD1)) was > 80000 nM.

`Cc1noc2c1-c1ccc(-c3cnn(C)c3)cc1N(c1ccc(C(N)=O)cc1)CC2` [Compound 119] was tested, and the IC50 [1] was 610 nM, the IC50 (BRD4(BD1)) was 150 nM and the EC50 [2] was 460 nM.

`Cc1noc2c1-c1ccc(-c3cnn(C)c3)cc1N(c1ccc(S(C)(=O)=O)cc1)CC2` [Compound 120] was tested, and the IC50 [1] was > 1000 nM, the IC50 (BRD4(BD1)) was 240 nM and the EC50 [2] was 1460 nM.

In the case of `Cc1noc2c1-c1ccccc1N(C(C)C)CC2` [Compound 128, 6-isopropyl-1-methyl-5,6-dihydro-4H-benzo[b]isoxazolo[4,5-d]azepine], the IC50 [1] is reported as > 15000 nM and the IC50 (BRD4(BD1)) is reported as 8100 nM.

Compound `Cc1noc2c1-c1cc(C(N)=O)ccc1N(c1ccc(C#N)cc1)CC2` [Compound 126, 6-(4-cyanophenyl)-1-methyl-5,6-dihydro-4H-benzo[b]isoxazolo[4,5-d]azepine-9-carboxamide] has an IC50 [1] of 5280 nM, an IC50 (BRD4(BD1)) of 1410 nM and an EC50 [2] of 1790 nM.

With `Cc1noc2c1-c1ccccc1NCC2` [Compound 100, 1-methyl-5,6-dihydro-4H-benzo[b]isoxazolo[4,5-d]azepine] the IC50 [1] was > 15000 nM and the IC50 (BRD4(BD1)) was 29800 nM.

`Cc1onc2c1-c1ccccc1NCC2` [Compound 143, 1-methyl-5,6-dihydro-4H-benzo[b]isoxazolo[4,3-d]azepine] showed an IC50 (BRD4(BD1)) of 39600 nM.

In the case of `Cc1noc2c1-c1ccc(Cl)cc1N(S(=O)(=O)c1ccccc1)CC2` [Compound 133, 8-chloro-1-methyl-6-(phenylsulfonyl)-5,6-dihydro-4H-benzo[b]isoxazolo[4,5-d]azepine], the IC50 [1] is reported as > 1000 nM, the IC50 (BRD4(BD1)) is reported as > 4000 nM and the EC50 [2] is reported as > 4000 nM.

In the case of `Cc1noc2c1-c1cc(-c3cncnc3)ccc1N(c1ccc(C#N)cc1)CC2` [Compound 112], the IC50 [1] is reported as > 15000 nM and the IC50 (BRD4(BD1)) is reported as 50000 nM.

With `Cc1cccc2c1N(Cc1ccccc1)CCc1onc(C)c1-2` [Compound 131, 6-benzyl-1,7-dimethyl-5,6-dihydro-4H-benzo[b]isoxazolo[4,5-d]azepine] the IC50 [1] was 8500 nM, the IC50 (BRD4(BD1)) was 20700 nM and the EC50 [2] was > 4000 nM.

Compound `Cc1noc2c1-c1ccccc1N(c1ccc(C#N)cc1)C(C)C2` (stereo not drawn) [Compound 141, 4-(1,5-dimethyl-4H-benzo[b]isoxazolo[4,5-d]azepin-6(5H)-yl)benzonitrile] has an IC50 [1] of 4390 nM and an IC50 (BRD4(BD1)) of 560 nM.

For `Cc1noc2c1-c1cc(C#N)ccc1N(c1ccc(C#N)cc1)CC2` [Compound 108], the IC50 (BRD4(BD1)) was 570 nM.

Compound `Cc1noc2c1-c1ccc(-c3cnn(C)c3)cc1N(c1ccc(C#N)cc1)CC2C` (stereo not drawn) [Compound 124] has an IC50 [1] of 120 nM, an IC50 (BRD4(BD1)) of 40 nM and an EC50 [2] of 260 nM.

`Cc1noc2c1-c1ccc(-c3ccc(=O)n(C)c3)cc1N(c1ccc(C#N)cc1)CC2C` (stereo not drawn) [Compound 125] gave an IC50 [1] of 90 nM, an IC50 (BRD4(BD1)) of 40 nM and an EC50 [2] of 170 nM.

With `Cc1noc(C)c1-c1ccc2c(c1)-c1c(C)noc1CCN2c1ccc(C#N)cc1` [Compound 113] the IC50 [1] was 7400 nM, the IC50 (BRD4(BD1)) was 8900 nM and the EC50 [2] was > 4000 nM.

In the case of `Cc1noc2c1-c1ccc(-c3cnn(C)c3)cc1N(c1ccc(C#N)cc1)CC2CC(N)=O` (stereo not drawn) [Compound 137, 2-(6-(4-cyanophenyl)-1-methyl-8-(1-methyl-1H-pyrazol-4-yl)-5,6-dihydro-4H-benzo[b]isoxazolo[4,5-d]azepin-4-yl)acetamide], the IC50 [1] is reported as > 1000 nM, the IC50 (BRD4(BD1)) is reported as 420 nM and the EC50 [2] is reported as 1840 nM.

In the case of `Cc1noc2c1-c1ccccc1NC(C)C2` (stereo not drawn) [Compound 144, 1,5-dimethyl-5,6-dihydro-4H-benzo[b]isoxazolo[4,5-d]azepine], the IC50 [1] is reported as > 15000 nM and the IC50 (BRD4(BD1)) is reported as 24000 nM.

In the case of `Cc1noc2c1-c1ccccc1N(c1ccc(Cl)cc1)CC21CC1` [Compound 105], the IC50 (BRD4(BD1)) is reported as 3380 nM.

`Cc1noc2c1-c1ccccc1N(c1ccc(C#N)cc1)CC2` [Compound 102] showed an IC50 [1] of 4570 nM and an IC50 (BRD4(BD1)) of 430 nM.

In the case of `CCCN1CCc2onc(C)c2-c2ccccc21` [Compound 129, 1-methyl-6-propyl-5,6-dihydro-4H-benzo[b]isoxazolo[4,5-d]azepine], the IC50 [1] is reported as > 15000 nM and the IC50 (BRD4(BD1)) is reported as 7900 nM.
